# Assay results as given in a melting point compilation (Tetko et al.; mined from patent text by program, amines drawn as free bases though some values may be those of a salt).
row,melting point [°C],SMILES
1,205 to 207,O=C(CCc1ccccc1)NCC(=O)N1c2ccccc2N(Cc2ccccc2)C(=O)[C@H]2CCC[C@H]21 (relative stereo)
2,70 to 71,CC[Si](CC)(CC)OC1C(=O)NC1c1cccs1 (stereo not drawn)
3,253 to 255,CC1(C(=O)Nc2ccc(C3=NNC(=O)C4CC34)cc2)CC1 (stereo not drawn)
4,> 325,O=C(O)c1cn(-c2ccccc2)c2cc(-c3ccncc3)ccc2c1=O
5,154 to 156,CCn1c(C=Cc2ccccc2)cnc1[N+](=O)[O-]
6,222 to 223,Nc1ncc(-c2cccc(-n3cnc4cc(-c5ccoc5)ccc43)c2)cn1
7,65,c1ccc(OCCSCc2nnc(-c3ccc(OCCCN4CCCCC4)cc3)o2)cc1
8,216 to 218,Cc1ccc(C2=NNC(=O)CC2)cc1O
9,265 to 268,CSCC[C@H]1NC(=O)[C@@H]([C@H](C)c2cccc3ccccc23)NC1=O
10,321 to 324,COc1ccc2[nH]c3c(c2c1)C[C@@]1(C)C(=O)N(CCn2ccnc2)C(=O)N1[C@@H]3c1cccc(O)c1 (racemic)
11,210 to 212,O=C1c2ccccc2-c2c1c1ccccc1c(=O)n2CCCl
12,219 to 221,CCCC(=O)N(NC(N)=S)c1ccccc1
13,274 to 278,Cc1cc(F)c(Nc2ncnc3cc(O)ccc23)cc1O
14,160 to 162,CCOC(=O)C(C(=O)OCC)c1ccc(NC(=O)c2cc3c(n(CC4CCCCC4)c2=O)CCCCCC3)c(C(F)(F)F)c1
15,179 to 181,c1ccc(CC2CCN(Cc3nc4ccccc4[nH]3)CC2)cc1
16,231 to 232,COc1cc(C(=O)O)ccc1Cc1cccc2ccc(CCCC(=O)N(C)C)cc12
17,81 to 83,Cc1cc(OC(=S)N(C)C)nc(C(Cl)(Cl)Cl)n1
18,101 to 103,CON(O)C(=O)c1ccccc1C(F)(F)F
19,124 to 125,Oc1ccc(CCNCC(O)c2ccc(OCc3ccccc3)cc2)cc1OCc1ccccc1 (stereo not drawn)
20,128 to 131,CC=C1c2ccccc2CC(=NO)c2ccccc21
21,98 to 100,COc1cnnc(Cl)c1
22,101 to 103,CCC(CC)NC(=O)c1ccc(-c2scc(-c3ccccc3Cl)c2CC(=O)O)cc1
23,242 to 245,Cc1nc(-c2ccc(OCC(C)(C)C)c([N+](=O)[O-])c2)sc1C(=O)O
24,190 to 193,COc1nc(C)nc(NC(=O)NS(=O)(=O)c2ccccc2-c2ccccc2)n1
25,185,CC(Cc1cc(-c2ccccc2)nc2ccccc12)C(=O)O (stereo not drawn)

row,melting point [°C],SMILES
1,232 to 235,S=C1NCC(Cn2cncn2)(c2ccc(Cl)cc2Cl)O1 (stereo not drawn)
2,100,CCS(=O)(=O)CC=Cc1ccccc1
3,162 to 164,CC(C)(C)NCC(O)COc1ccccc1-c1ccc(=O)[nH]n1 (stereo not drawn)
4,210 to 211,COc1ccc(C=C2CCc3c2nc2ccc(C)cn2c3=O)cc1
5,127 to 128,O=c1c(C(F)(F)F)cn(C2CC(O)C(CO)O2)c(=O)n1C1CCCO1 (stereo not drawn)
6,226 to 227,CN1CCN(c2ccc(-c3cnc4c(c3)N(Cc3cc(Cl)ccc3C(F)(F)F)CCN4)cn2)CC1
7,198 to 200,CS(=O)(=O)Nc1ccc(C(=O)c2ccc(Cl)cc2)cc1
8,158 to 165,CN1C(=O)CC[C@]2(C)c3ccc(-c4cccc(Cl)c4)cc3CC[C@@H]12
9,134 to 136,O=C(NCCCn1ccnc1)c1ccccc1
10,214,CCOc1ccc(-c2cc(Nc3ccc(OC)c(Cl)c3)nc(NC(C)=O)n2)cc1
11,217 to 219,O=c1[nH]ncc(NCCN2CCN(c3cccc4c3OCCO4)CC2)c1Cl
12,115 to 120,COC(=O)c1nc(-c2ccc(Cl)c(OC)c2F)cc(NC(C)=O)c1OCc1ccccc1
13,78 to 79,COc1cc(OC)c(F)c(N)c1F
14,136 to 138,CCS(=O)(=O)NC(C(=O)NCCc1ccc(OC)c(OC)c1)c1ccc(Cl)cc1 (stereo not drawn)
15,198,O=C1c2cc3ccccc3c(-c3ccccc3)c2C(=O)N1C1CC1
16,216,CC(C)(C)CNc1nnc(-c2ccccc2)c2ccccc12
17,235 to 238,COCCN1C(=O)CCC(C)(C)c2ccc(Nc3ncc(Cl)c(Nc4c(F)cccc4OCC#N)n3)cc21
18,137 to 141,O=C1c2ccccc2SC(O)(c2ccccc2)C2CCCN12 (stereo not drawn)
19,39 to 46,COP(=O)(CC(=O)C(C)(C)Cc1ccccc1)OC
20,170 to 172,Cc1cc2c(cc1C(=O)C(C)CC(=O)O)NC(=O)CO2 (stereo not drawn)
21,199 to 201,COCc1cnc2c(NC(=O)c3c(Cl)cccc3Cl)cccc2c1N1CCN(C)C1=O
22,230 to 237,CCn1c(O)cc(C)c(C#N)c1=O
23,90 to 94,Cc1cccc2c(Cl)cc(C(F)(Cl)Cl)nc12
24,83 to 84.5,O=C(Oc1ccccc1)C(I)=C(I)I
25,180 to 181,COC(=O)c1cc2c(nc1C)C(=O)CCC2

row,melting point [°C],SMILES
1,128 to 134,C[C@@H](Nc1ncnc2cc(OCCOS(C)(=O)=O)c([N+](=O)[O-])cc12)c1ccccc1
2,272,CCOC(=O)c1cn(C)c2cnc3cc(F)c(F)cc3c2c1=O
3,188 to 189,Cc1ccc(Cl)cc1NC(=S)Nc1nc(C)c(C)s1
4,223 to 225,Oc1cccnc1C=NNc1ccc(F)cc1
5,301 to 303,Cc1cn2c(=O)c(C(=O)O)cnc2c2cc([N+](=O)[O-])ccc12
6,241 to 243,C=CCc1cc(O)c(CC=C)c(C=NO)c1O
7,189,COc1cccc2c(=O)c3c(O)cc(OCC(O)CO)cc3oc12 (stereo not drawn)
8,140 to 142,NCCC(=O)NCCCO
9,136 to 138,O=C1c2ccccc2C(=O)N1OCCN(CCO)CCON1C(=O)c2ccccc2C1=O
10,132 to 133,Cc1c(-c2ccncc2)sc(-c2ccncc2)c1C(F)F
11,97 to 98,CC(C)(C)OC(=O)N1CC(O)C(SCc2ccccc2)C1 (stereo not drawn)
12,41 to 43,COC(=O)c1ccc(SC)c(OC(C)C)c1
13,90.8 to 91.5,COC(=O)c1ccc(OC(C)c2ccccc2OCc2ccccc2)cc1 (stereo not drawn)
14,71 to 72,OC/C=C/C=C(c1ccccc1)c1ccccc1
15,162 to 164,Cc1nc(N2CCCC(Cc3ccccc3)C2=O)sc1C(=O)NCc1ccccc1 (stereo not drawn)
16,172 to 174,CC(C)C(C)(NC(=O)c1nc2ccccc2cc1C(=O)O)C(N)=O (stereo not drawn)
17,119 to 121,Cc1oc2ccc(Br)cc2c(=O)c1-c1ccccc1
18,89 to 90,CCOc1ccc2c(C)c(CCCl)c(=O)oc2c1OCC
19,240 to 244,NC(=O)c1cccc(NS(=O)(=O)c2ccc([N+](=O)[O-])cc2)c1
20,140 to 164,CCOC(=O)c1cnccc1CCCOc1cccnc1Oc1cccc(Cl)c1
21,186 to 188,O=C1N(c2ccccc2)c2ccccc2C1(Cc1ccncc1)Cc1ccncc1
22,265 to 266,CCOC(=O)c1cc(Nc2cccc(Cl)c2Cl)c(C(=O)OCC)cc1Nc1cccc(Cl)c1Cl
23,78 to 80,CCCCCCCCCCCCCCOc1ccc(CC(=O)Cl)cc1
24,55 to 58,C=CCOC(=O)NCc1noc([C@H](CS)NC(=O)OC(C)(C)C)n1
25,170,CCCOc1ccc(-c2ccc(=S)[nH]n2)cc1OC

row,melting point [°C],SMILES
1,56 to 56.5,C=C(C)C(=O)N(SC1CCCCC1)c1ccccc1
2,127 to 129,CC(C)(C)OC(=O)NC1CCc2ccccc2C(F)C1=O (stereo not drawn)
3,122,COC(=O)Cn1c(=O)n(C)c(=O)n(-c2cc(F)ccc2[N+](=O)[O-])c1=O
4,74 to 79,Cc1cccc(N=NC2=NCCS2)c1C
5,73 to 74,N#CC(c1ccc(Cl)c(C(F)(F)F)c1)N1CCOCC1 (stereo not drawn)
6,37 to 38,CCNCCCCCC(C)O (stereo not drawn)
7,286 to 287,CCCCc1sc(C(=O)O)c2c1-c1c(cnn1C)CC2
8,237 to 240,NC(=O)CCc1ccnc(-c2nc(=O)c3ccccc3s2)c1
9,246 to 248,Cc1c(C(=O)Nc2cc(Cl)c(N3CCC(N4CCOCC4)CC3)c(Cl)c2)cnn1-c1ccc(Cl)cc1
10,233 to 235,O=C(Cc1ccc([N+](=O)[O-])cc1C(=O)O)Nc1cccc(/C=C/c2nc(C3CCC3)cs2)c1
11,99 to 100,CC(=O)N[C@@H](C)COC1CCN(c2nc3cc(OCC4CC4)ccc3o2)CC1
12,146 to 148,CCCNC(=O)CSc1nc(Cl)cc(Nc2cccc(C)c2C)n1
13,126 to 127,CCCOc1cc(OCCCc2cn(-c3ccc(C(F)(F)F)cn3)nc2OCC)ccc1CCC(=O)O
14,185,COc1ccc(C(=O)Nc2nc3ccc(N(C)C)cc3c(N=Cc3ccccc3)c2C#N)cc1
15,198 to 205,COc1cc(N2CCC(N3CCN(C)CC3)CC2)ccc1Nc1ncc2ccc(-c3ccccc3S(=O)(=O)N(C)C)n2n1
16,72,COCc1ccc(Cn2cc(-c3ccc(OC)cc3)ccc2=O)cc1
17,198 to 199,CC#Cc1ccc(NC(=O)C#Cc2ccc(CCN3CCCC3)cc2)cc1
18,120 to 122,COCc1cccc(-c2ccc3nc(-c4ccc(Cl)cc4)c(Cl)n3c2)c1
19,118 to 120,CCCSc1ncc(CC(C(=O)O)C(=O)OCC)n1Cc1ccccc1Cl (stereo not drawn)
20,167 to 168,Cc1cccc(C(=O)Nc2c(C(O)(C(F)(F)F)C(F)(F)F)ccc3ccccc23)c1
21,159 to 160,COC(Cc1ccc2oc(Cc3nc(-c4ccccc4)oc3C)cc2c1)C(=O)O (stereo not drawn)
22,122 to 123,O=C(NCCO)c1cccc(-c2cccc3nc(Cc4cccc(C(F)(F)F)c4)oc23)c1
23,224 to 225,O=C(NNC(=O)c1ccccn1)c1ccccn1
24,202 to 204,Cc1ccc2c(c1)N(CC(=O)c1ccco1)C(=O)C(NC(=O)Nc1cccc(C(=O)O)c1)CN2C(=O)C(C)(C)C (stereo not drawn)
25,236 to 237,COc1ccc(C(=O)Oc2ccc(C(=O)O)c(C)c2)cc1C12CC3CC(CC(C3)C1)C2

row,SMILES,melting point [°C]
1,Cc1ccc(CI)cc1Cl,88
2,CC(CCCc1ccccc1)c1cc(O)c2c3c(c(=O)oc2c1)CCC(=O)C3 (stereo not drawn),163 to 164
3,FC(F)COc1cc(NC2=NCC3(CN4CCC3CC4)O2)ncn1 (stereo not drawn),83 to 88
